For 22 compounds, IC50 and Ki results are on record in ChEMBL document CHEMBL1909046, “DrugMatrix in vitro pharmacology data”.

Test [1] deals with Mitogen-activated protein kinase 1 (Homo sapiens, UniProt P28482). Briefly: DRUGMATRIX: Protein Serine/Threonine Kinase, ERK2 enzyme inhibition (substrate: Myelin Basic Protein). Also noted: species or system Escherichia coli. Particulars: Not Active = under 50% inhibition at 10 µM.
For test [2], the target named is T1, Muscarinic acetylcholine receptor M4 (Homo sapiens, UniProt P08173). Also: in other assays of this panel Not Active means under 50% inhibition at 10 µM.
T1 sequence (P08173 whole entry): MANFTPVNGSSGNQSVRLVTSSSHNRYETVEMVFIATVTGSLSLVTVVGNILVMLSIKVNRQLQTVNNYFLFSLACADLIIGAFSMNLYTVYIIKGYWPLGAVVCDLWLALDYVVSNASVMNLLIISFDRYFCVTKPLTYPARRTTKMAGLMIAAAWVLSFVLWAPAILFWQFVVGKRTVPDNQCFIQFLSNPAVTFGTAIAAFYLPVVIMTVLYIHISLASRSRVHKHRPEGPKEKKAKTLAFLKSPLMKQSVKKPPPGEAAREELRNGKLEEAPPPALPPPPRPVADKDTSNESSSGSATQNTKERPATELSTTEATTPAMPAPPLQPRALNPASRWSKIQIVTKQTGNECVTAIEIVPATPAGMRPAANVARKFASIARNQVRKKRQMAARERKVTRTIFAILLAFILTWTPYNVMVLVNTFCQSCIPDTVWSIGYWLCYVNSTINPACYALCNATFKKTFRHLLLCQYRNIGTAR
The format is cell membranes, CHO-K1, Membrane.

Test [3] deals with T2, Calcitonin receptor (Homo sapiens, UniProt P30988).
T2 sequence (P30988 whole entry): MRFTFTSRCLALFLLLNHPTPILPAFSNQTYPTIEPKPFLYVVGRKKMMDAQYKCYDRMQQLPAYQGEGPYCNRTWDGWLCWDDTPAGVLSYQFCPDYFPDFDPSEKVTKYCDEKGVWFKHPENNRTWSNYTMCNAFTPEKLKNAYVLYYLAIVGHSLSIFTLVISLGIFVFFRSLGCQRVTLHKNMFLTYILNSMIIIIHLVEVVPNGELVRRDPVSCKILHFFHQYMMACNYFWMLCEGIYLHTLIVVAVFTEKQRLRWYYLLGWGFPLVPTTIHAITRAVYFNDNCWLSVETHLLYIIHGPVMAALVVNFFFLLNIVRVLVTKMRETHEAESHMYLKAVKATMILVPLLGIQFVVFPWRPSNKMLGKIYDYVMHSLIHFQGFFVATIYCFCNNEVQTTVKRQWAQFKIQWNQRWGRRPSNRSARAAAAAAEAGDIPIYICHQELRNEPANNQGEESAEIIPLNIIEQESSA
In kind it is cell membranes, Membrane. Particulars: t47d.

Test [4] has as its target T3, Adenosine receptor A1 (Homo sapiens, UniProt P30542).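 Also: radioligand binding assay at the adenosine A1 receptor, with DPCPX serving as the labelled ligand; in other assays of this panel Not Active means under 50% inhibition at 10 µM.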
T3 sequence (P30542 whole entry): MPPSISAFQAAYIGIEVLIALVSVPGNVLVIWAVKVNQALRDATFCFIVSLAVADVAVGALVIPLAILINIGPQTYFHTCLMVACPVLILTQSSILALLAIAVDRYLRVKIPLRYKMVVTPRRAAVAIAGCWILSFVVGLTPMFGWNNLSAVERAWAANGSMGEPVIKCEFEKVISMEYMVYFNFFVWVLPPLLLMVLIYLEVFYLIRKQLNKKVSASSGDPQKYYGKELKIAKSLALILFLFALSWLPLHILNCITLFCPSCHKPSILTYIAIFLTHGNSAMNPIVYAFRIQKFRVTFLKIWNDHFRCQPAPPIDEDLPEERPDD
In kind it is cell membranes, CHO, Membrane. Particulars: cho.

Test [5] addresses C-C chemokine receptor type 5 (Homo sapiens, UniProt P51681). The format is cell membranes, HEK293, Membrane. Particulars: hek293.
Test [6] has as its target Carbonic anhydrase 2 (Homo sapiens, UniProt P00918). Description: DRUGMATRIX: Carbonic Anhydrase II enzyme inhibition (substrate: 4-Nitrophenyl acetate (4-NPA)). In kind it is tissue-based, Erythrocyte. Particulars: Not Active = under 50% inhibition at 10 µM.

Chain of Mitogen-activated protein kinase 1 (P28482 whole entry): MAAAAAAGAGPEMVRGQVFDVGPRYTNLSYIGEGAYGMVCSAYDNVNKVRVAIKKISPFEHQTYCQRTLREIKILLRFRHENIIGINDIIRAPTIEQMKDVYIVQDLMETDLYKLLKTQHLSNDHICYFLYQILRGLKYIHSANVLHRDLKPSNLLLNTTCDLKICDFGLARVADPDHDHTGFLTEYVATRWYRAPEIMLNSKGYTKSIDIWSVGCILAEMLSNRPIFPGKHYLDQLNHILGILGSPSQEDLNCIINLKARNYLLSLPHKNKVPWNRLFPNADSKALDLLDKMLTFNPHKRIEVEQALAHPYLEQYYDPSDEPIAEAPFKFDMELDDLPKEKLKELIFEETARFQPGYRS
Chain of C-C chemokine receptor type 5 (P51681 whole entry): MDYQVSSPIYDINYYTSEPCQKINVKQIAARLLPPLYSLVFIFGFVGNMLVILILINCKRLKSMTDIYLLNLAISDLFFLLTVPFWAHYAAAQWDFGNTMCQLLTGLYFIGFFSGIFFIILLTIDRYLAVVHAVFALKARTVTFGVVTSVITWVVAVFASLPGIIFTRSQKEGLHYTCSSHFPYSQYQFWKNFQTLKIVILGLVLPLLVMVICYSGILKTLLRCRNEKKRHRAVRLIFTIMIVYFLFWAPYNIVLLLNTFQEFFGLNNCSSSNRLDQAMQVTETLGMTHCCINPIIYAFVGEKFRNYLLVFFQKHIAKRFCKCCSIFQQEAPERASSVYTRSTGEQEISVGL

Turning to `CC[C@H]1OC(=O)[C@H](C)[C@@H](O[C@H]2C[C@@](C)(OC)[C@@H](O)[C@H](C)O2)[C@H](C)[C@@H](O[C@@H]2O[C@H](C)C[C@H](N(C)C)[C@H]2O)[C@](C)(O)C[C@@H](C)C(=O)[C@H](C)[C@@H](O)[C@]1(C)O` [ERYTHROMYCIN], the IC50 result in test [1], in test [2] (cho-k1), in test [3], in test [4], in test [5] and in test [6] (erythrocyte) was “Not Active” in each case.
For `NC(N)=Nc1nc(CSCCC(N)=NS(N)(=O)=O)cs1` [FAMOTIDINE], the IC50 entry in test [1], in test [2] (cho-k1), in test [3], in test [4], in test [5] and in test [6] (erythrocyte) was “Not Active” each time.
On to `COc1cc(NC(C)CCCN)c2ncccc2c1` (stereo not drawn) [PRIMAQUINE], for which the IC50 entry in test [1], in test [2] (cho-k1), in test [3], in test [4], in test [5] and in test [6] (erythrocyte) was “Not Active” in each case.
For `c1ccc2sc(SSc3nc4ccccc4s3)nc2c1` [BENZOTHIAZYL DISULFIDE], the IC50 result in test [1], in test [2] (cho-k1), in test [3], in test [4], in test [5] and in test [6] (erythrocyte) was “Not Active” in each case.
Take `CC(C)(C#N)c1cc(Cn2cncn2)cc(C(C)(C)C#N)c1` [ANASTROZOLE]: the IC50 entry in test [1], in test [2] (cho-k1), in test [3], in test [4], in test [5] and in test [6] (erythrocyte) was “Not Active” throughout.
On to `O=C(O)c1ccccc1` [BENZOIC ACID], for which the IC50 result in test [1], in test [2] (cho-k1), in test [3], in test [4], in test [5] and in test [6] (erythrocyte) was “Not Active” each time.
Turning to `O=C(Nc1ccc(Cl)c(Cl)c1)c1cc(Cl)cc(Cl)c1O` [3,3',4',5-TETRACHLOROSALICYLANILIDE], the IC50 in test [1] (read-out: IC50) is 0.886 µM; in test [2] (cho-k1) it was “Not Active”; in test [3] it was “Not Active”; in test [4], “Not Active”; in test [5] it was “Not Active”; in test [6] (erythrocyte), “Not Active”.
For the compound `CC(C)NCC(O)COc1ccc(CC(N)=O)cc1` (stereo not drawn) [ATENOLOL], the IC50 entry in test [1], in test [2] (cho-k1), in test [3], in test [4], in test [5] and in test [6] (erythrocyte) was “Not Active” in each case.
Consider `OC[C@H]1O[C@@H]2O[C@H]3[C@H](O)[C@@H](O)[C@@H](O[C@H]4[C@H](O)[C@@H](O)[C@@H](O[C@H]5[C@H](O)[C@@H](O)[C@@H](O[C@H]6[C@H](O)[C@@H](O)[C@@H](O[C@H]7[C@H](O)[C@@H](O)[C@@H](O[C@H]1[C@H](O)[C@H]2O)O[C@@H]7CO)O[C@@H]6CO)O[C@@H]5CO)O[C@@H]4CO)O[C@@H]3CO` [ALFADEX], for which the IC50 result in test [1], in test [2] (cho-k1), in test [3], in test [4], in test [5] and in test [6] (erythrocyte) was “Not Active” each time.
Turning to `CC(=O)Nc1ccc2c(c1)Cc1ccccc1-2` [2-ACETYLAMINOFLUORENE], the concentration for half-maximal inhibition (IC50) entry in test [1], in test [2] (cho-k1), in test [3], in test [4], in test [5] and in test [6] (erythrocyte) was “Not Active” throughout.
As for `O=C(O)CO` [GLYCOLIC ACID], the IC50 result in test [1], in test [2] (cho-k1), in test [3], in test [4], in test [5] and in test [6] (erythrocyte) was “Not Active” each time.
Take `CC12CCC(CC1)C(C)(C)O2` [EUCALYPTOL]: the IC50 entry in test [1], in test [2] (cho-k1), in test [3], in test [4], in test [5] and in test [6] (erythrocyte) was “Not Active” throughout.
For the compound `CCN(CCO)CCCC(C)Nc1ccnc2cc(Cl)ccc12` (stereo not drawn) [HYDROXYCHLOROQUINE], the IC50 result in test [1], in test [2] (cho-k1), in test [3], in test [4], in test [5] and in test [6] (erythrocyte) was “Not Active” throughout.
In the case of `CC12CCC(CC1=O)C2(C)C` (stereo not drawn) [CAMPHOR], the IC50 entry in test [1], in test [2] (cho-k1), in test [3], in test [4], in test [5] and in test [6] (erythrocyte) was “Not Active” throughout.
As for `CCC1(c2ccccc2)C(=O)NC(=O)NC1=O` [PHENOBARBITAL], the IC50 result in test [1], in test [2] (cho-k1), in test [3], in test [4], in test [5] and in test [6] (erythrocyte) was “Not Active” throughout.
For the compound `Oc1ccccc1` [PHENOL], the IC50 entry in test [1], in test [2] (cho-k1), in test [3], in test [4], in test [5] and in test [6] (erythrocyte) was “Not Active” each time.
As for `Nc1nc(F)nc2c1ncn2[C@@H]1O[C@H](CO)[C@@H](O)[C@@H]1O` [FLUDARABINE], the IC50 entry in test [1], in test [2] (cho-k1), in test [3], in test [4], in test [5] and in test [6] (erythrocyte) was “Not Active” each time.
For the compound `Nc1nc(N)c2nc(CNc3ccc(C(=O)N[C@@H](CCC(=O)O)C(=O)O)cc3)cnc2n1` [AMINOPTERIN], the IC50 result in test [1], in test [2] (cho-k1), in test [3], in test [4], in test [5] and in test [6] (erythrocyte) was “Not Active” each time.
For the compound `Oc1ncnc2[nH]ncc12` [ALLOPURINOL], the IC50 result in test [1], in test [2] (cho-k1), in test [3], in test [4], in test [5] and in test [6] (erythrocyte) was “Not Active” throughout.
Take `O=C(O)CCc1nc(-c2ccccc2)c(-c2ccccc2)o1` [OXAPROZIN]: the IC50 result in test [1], in test [2] (cho-k1), in test [3], in test [4], in test [5] and in test [6] (erythrocyte) was “Not Active” throughout.
With `ClC1=C(Cl)[C@]2(Cl)[C@@H]3[C@@H]4C[C@@H]([C@H]5O[C@@H]45)[C@@H]3[C@@]1(Cl)C2(Cl)Cl` [DIELDRIN], the IC50 result in test [1], in test [2] (cho-k1), in test [3], in test [4], in test [5] and in test [6] (erythrocyte) was “Not Active” each time.
Regarding `CC1(COc2ccc(CC3SC(=O)NC3=O)cc2)CCCCC1` (stereo not drawn) [CIGLITAZONE], the IC50 result is “Not Active” in test [1]; 16.2 µM in test [2] (read-out: IC50); “Not Active” in test [3]; “Not Active” in test [4]; “Not Active” in test [5]; 0.086 µM in test [6] (read-out: IC50). In addition, the Ki in test [2] (read-out: Ki) amounted to 2.26 µM.
